# According to US8703784B2, “Substituted pyrazolo[1,5-a]pyrido[3.2-e]pyrimidin-6-one inhibitors of mammalian target of rapamycin” (Merck Sharp & Dohme Corp., priority 2010, dated 2014):
# Biological target: mTOR enzyme (Homo sapiens, UniProt P42345)
# Experiment: mTOR Kinase Assay
# Type: biochemical
# Details: 5 μM ATP, 0.1 μM GSTS6K substrate
# Procedure: The mTOR assay buffer contains 10 mM hepes (pH 7.4), 50 mM NaCl, 100 μg/ml BSA, 50 mM B-glycerophosphate, 10 mM MnCl2 and 0.5 mM DTT. 20 ng of mTOR enzyme is preincubated with the compound for 10 minutes. 5 μM ATP and 0.1 μM GSTS6K is added. The reaction is incubated for one hour at 30° C. Anti phospho p70S6K (about 1.7 ng/well) and anti GSTXL665 (1:1 Ratio with the substrate GSTS6K) are added after incubating. The plates are read at least 2 hours after adding the anti phospho p70S6K and the anti GSTXL665.
# Dose-response curves were plotted from inhibition data generated, each in duplicate, from 8 point serial dilutions of inhibitory compounds. Concentration of compound was plotted against % kinase activity, calculated by CPM of treated samples divided by CPM of untreated samples. To generate IC50 values, the dose-response curves were then fitted to a standard sigmoidal curve and IC50 values were derived by nonlinear regression analysis.
row,Compound,IC50 [nM]
1,"O=C1CCNc2c1c(C1CCS(=O)(=O)CC1)nc1c(-c3cnc4ccccc4c3)cnn21 [Example 24, 3-(quinolin-3-yl)-5-(tetrahydro-1,1-dioxido-2H-thiopyran-4-yl)-8,9-dihydropyrazolo[1,5-a]pyrido[3,2-e]pyrimidin-6(7H)-one]",10 to 100
2,"O=C1CCNc2c1c(N1CCOCC1)nc1c(-c3cnc4ccccc4c3)cnn21 [Example 19, 5-morpholino-3-(quinolin-3-yl)-8,9-dihydropyrazolo[1,5-a]pyrido[3,2-e]pyrimidin-6(7H)-one]",10 to 100
3,CC(CO)(CO)C(=O)N1CCC(c2nc3c(-c4ccc(-c5ccccc5)nc4)cnn3c3c2C(=O)CCN3)CC1 [Example 18],< 10
4,"CC(NC1CCOCC1)c1nc2c(-c3cnc4ccc(F)cc4c3)cnn2c2c1C(=O)CCN2 (stereo not drawn) [Example 28, 3-(6-fluoroquinolin-3-yl)-5-(1-(tetrahydro-2H-pyran-4-ylamino)ethyl)-8,9-dihydropyrazolo[1,5-a]pyrido[3,2-e]pyrimidin-6(7H)-one]",> 100
5,O=C1CCNc2c1c(C1CC3CCC(C1)N3C(=O)c1nnc[nH]1)nc1c(-c3ccc(-c4ccccn4)nc3)cnn21 (stereo not drawn) [Example 12],< 10
6,"O=C1CCNc2c1c(C1CCS(=O)(=O)CC1)nc1c(-c3ccc(-c4ccccc4)nc3)cnn21 [Example 23, 3-(6-phenylpyridin-3-yl)-5-(tetrahydro-1,1-dioxido-2H-thiopyran-4-yl)-8,9-dihydropyrazolo[1,5-a]pyrido[3,2-e]pyrimidin-6(7H)-one]",< 10
7,"(1r,4r)-1-(2-methoxyethoxy)-4-(3-(6-(1-methyl-1H-pyrazol-3-yl)pyridin-3-yl)-6-oxo-6,7,8,9-tetrahydropyrazolo[1,5-a]pyrido[3,2-e]pyrimidin-5-yl)cyclohexanecarboxylic acid [Example 26]",< 10
8,"COCCO[C@]1(C(=O)O)CC[C@@H](c2nc3c(-c4cnn(-c5ccccc5)c4)cnn3c3c2C(=O)CCN3)CC1 [Example 25, (1r,4r)-1-(2-methoxyethoxy)-4-(6-oxo-3-(1-phenyl-1H-pyrazol-4-yl)-6,7,8,9-tetrahydropyrazolo[1,5-a]pyrido[3,2-e]pyrimidin-5-yl)cyclohexanecarboxylic acid]",< 10
9,"C[C@@H]1CN(c2nc3c(-c4ccc(-c5ccccc5)nc4)cnn3c3c2C(=O)CCN3)C[C@H](C)O1 [Example 20, 5-((2R,6S)-2,6-dimethylmorpholino)-3-(6-phenylpyridin-3-yl)-8,9-dihydropyrazolo[1,5-a]pyrido[3,2-e]pyrimidin-6(7H)-one]",10 to 100

# Results, then the compound that gave them:
row,IC50 [nM],Compound
1,< 10,COc1ccc(-c2ccc(-c3cnn4c5c(c(C6CC7CCC(C6)N7C(=O)CO)nc34)C(=O)CCN5)cn2)cc1F (stereo not drawn) [Example 6]
2,< 10,O=C1CCNc2c1c(N1CCS(=O)(=O)CC1)nc1c(-c3ccc(-c4ccccc4)nc3)cnn21 [Example 22]
3,< 10,"O=C1CCNc2c1c(C1CC3CCC(C1)N3C(=O)c1nnc[nH]1)nc1c(-c3ccc(-c4ccccc4)nc3)cnn21 (stereo not drawn) [Example 1, 5-(8-(4H-1,2,4-triazole-3-carbonyl)-8-azabicyclo[3.2.1]octan-3-yl)-3-(6-phenylpyridin-3-yl)-8,9-dihydropyrazolo[1,5-a]pyrido[3,2-e]pyrimidin-6(7H)-one]"
4,< 10,Cn1ccc(-c2ccc(-c3cnn4c5c(c(C6CC7CCC(C6)N7C(=O)C(C)(CO)CO)nc34)C(=O)CCN5)cn2)n1 (stereo not drawn) [Example 5]
5,< 10,COc1ccc(-c2ccc(-c3cnn4c5c(c(C6CC7CCC(C6)N7C(=O)C(C)(CO)CO)nc34)C(=O)CCN5)cn2)cc1F (stereo not drawn) [Example 8]
6,< 10,O=C1CCNc2c1c(C1CCN(C(=O)CO)CC1)nc1c(-c3ccc(-c4ccccc4)nc3)cnn21 [Example 16]
7,< 10,C[C@@H](O)C(=O)N1CCC(c2nc3c(-c4ccc(-c5ccccc5)nc4)cnn3c3c2C(=O)CCN3)CC1 [Example 17]
8,< 10,"O=C(c1nnc[nH]1)N1C2CCC1CC(c1nc3c(-c4ccc(-c5ccccc5)nc4)cnn3c3[nH]ccc(=O)c13)C2 (stereo not drawn) [Example 2, 5-(8-(4H-1,2,4-triazole-3-carbonyl)-8-azabicyclo[3.2.1]octan-3-yl)-3-(6-phenylpyridin-3-yl)pyrazolo[1,5-a]pyrido[3,2-e]pyrimidin-6(9H)-one]"
9,< 10,"O=C1CCNc2c1c(C1C[C@H]3COC[C@@H](C1)N3C(=O)c1nc[nH]n1)nc1c(-c3ccc(-c4ccccc4)nc3)cnn21 (stereo partly drawn) [Example 27, 5-((1R,5S)-9-(1H-1,2,4-triazole-3-carbonyl)-3-oxa-9-azabicyclo[3.3.1]nonan-7-yl)-3-(6-phenylpyridin-3-yl)-8,9-dihydropyrazolo[1,5-a]pyrido[3,2-e]pyrimidin-6(7H)-one]"
10,< 10,Cn1ccc(-c2ccc(-c3cnn4c5c(c(C6CC7CCC(C6)N7C(=O)c6nnc[nH]6)nc34)C(=O)CCN5)cn2)n1 (stereo not drawn) [Example 4]
11,< 10,O=C1CCNc2c1c(N1CCS(=O)(=O)CC1)nc1c(-c3cnc4ccc(F)cc4c3)cnn21 [Example 21]
12,< 10,"O=C1CCNc2c1c(C1CCN(C(=O)c3nnc[nH]3)CC1)nc1c(-c3ccc(-c4ccccc4)nc3)cnn21 [Example 15, 5-(1-(4H-1,2,4-triazole-3-carbonyl)piperidin-4-yl)-3-(6-phenylpyridin-3-yl)-8,9-dihydropyrazolo[1,5-a]pyrido[3,2-e]pyrimidin-6(7H)-one]"
